# Data reported in patent US7608627B2, “6-azaindole compound” (Takeda Pharmaceutical Company Limited, priority 2005, dated 2009).
# Structures can show the parent of a compound that is named as a salt.
row,Compound,melting point
1,Cl.Clc1nccc2cc(CNCCN3CCOCC3)[nH]c12,146 to 150 °C
2,"O=C(c1cc2ccnc(Cl)c2[nH]1)N1CCSCC1 [Example 14, 7-Chloro-2-(4-thiomorpholinylcarbonyl)-1H-pyrrolo[2,3-c]pyridine]",62 to 72 °C
3,"CC(C)CC(=O)c1cc2ccncc2[nH]1 [Example 81, 3-Methyl-1-(1H-pyrrolo[2,3-c]pyridin-2-yl)-1-butanone]",215 to 218 °C
4,"O=C(c1ccccc1)c1cc2ccnc(N(Cc3ccccc3)Cc3ccccc3)c2[nH]1 [Example 47, [7-(Dibenzylamino)-1H-pyrrolo[2,3-c]pyridin-2-yl](phenyl)methanone]",122 to 124 °C
5,Cl.c1ccc(CON=C(c2ccccc2)c2cc3ccncc3[nH]2)cc1,153 to 155 °C
6,"O=C(NCc1cccnc1)c1cc2ccnc(N(Cc3ccccc3)Cc3ccccc3)c2[nH]1 [Example 37, 7-(Dibenzylamino)-N-(3-pyridinylmethyl)-1H-pyrrolo[2,3-c]pyridine-2-carboxamide]",105 to 108 °C
7,"OC(c1ccc(Cl)cc1)c1cc2ccncc2[nH]1 (centres unmarked) [Example 101, (4-Chlorophenyl)(1H-pyrrolo[2,3-c]pyridin-2-yl)methanol]",176 to 180 °C
8,"CC(C)(C)OC(=O)NCCCO/N=C(\c1ccccc1)c1cc2ccncc2[nH]1 [Example 76, tert-Butyl 3-[[[phenyl(1H-pyrrolo[2,3-c]pyridin-2-yl)methylene]amino]oxy]propylcarbamate]",52 to 58 °C
9,"O=C(NCc1ccco1)c1cc2ccnc(Cl)c2[nH]1 [Example 7, 7-Chloro-N-(2-furylmethyl)-1H-pyrrolo[2,3-c]pyridine-2-carboxamide]",205 to 209 °C
10,CCNCc1cc2ccnc(Cl)c2[nH]1.Cl,242 to 245 °C (dec.)
11,Cl.NCCO/N=C(\c1ccccc1)c1cc2ccncc2[nH]1 [Example 67],176 to 184 °C (dec.)
12,NCc1cc2ccncc2[nH]1 (as salt: hydrochloride),302 to 303 °C
13,"C/C(=N\NC(=N)N)c1cc2ccncc2[nH]1 (as salt: hydrochloride) [Example 71, [[1-(1H-Pyrrolo[2,3-c]pyridin-2-yl)ethylidene]amino]guanidine dihydrochloride]",314 to 318 °C (dec.)
14,"COc1ccc(/C(=N/OCCN)c2cc3ccncc3[nH]2)cc1 (single isomer, unassigned) (as salt: hydrochloride) [Example 124, (4-Methoxyphenyl)(1H-pyrrolo[2,3-c]pyridin-2-yl)methanone O-(2-aminoethyl)oxime dihydrochloride]",178 to 184 °C
15,"O=C(NCc1ccncc1)c1cc2ccnc(N(Cc3ccccc3)Cc3ccccc3)c2[nH]1 [Example 41, 7-(Dibenzylamino)-N-(4-pyridinylmethyl)-1H-pyrrolo[2,3-c]pyridine-2-carboxamide]",119 to 120 °C
16,"OC(c1ccc(Cl)c(Cl)c1)c1cc2ccncc2[nH]1 (centres unmarked) [Example 113, (3,4-Dichlorophenyl)(1H-pyrrolo[2,3-c]pyridin-2-yl)methanol]",264 to 266 °C (dec.)
17,"OC(CCc1ccccc1)c1cc2ccncc2[nH]1 (centres unmarked) [Example 83, 3-Phenyl-1-(1H-pyrrolo[2,3-c]pyridin-2-yl)propan-1-ol]",162 to 166 °C
18,"CC(C)(C)OC(=O)NCCO/N=C(\c1ccc(Cl)cc1)c1cc2ccncc2[nH]1 (single isomer, unassigned) [Example 116, tert-Butyl 2-[[[(4-chlorophenyl)(1H-pyrrolo[2,3-c]pyridin-2-yl)methylene]amino]oxy]ethylcarbamate]",166 to 169 °C
19,"O=C(c1cc2ccnc(Cl)c2[nH]1)N1CCCC1 [Example 13, 7-Chloro-2-(1-pyrrolidinylcarbonyl)-1H-pyrrolo[2,3-c]pyridine]",152 to 154 °C
20,"CC(C)CC(O)c1cc2ccncc2[nH]1 (centres unmarked) [Example 79, 3-Methyl-1-(1H-pyrrolo[2,3-c]pyridin-2-yl)-1-butanol]",182 to 189 °C (dec.)
21,"O=C(NCc1ccccc1)c1cc2ccnc(Cl)c2[nH]1 [Example 2, N-Benzyl-7-chloro-1H-pyrrolo[2,3-c]pyridine-2-carboxamide]",217 to 220 °C
22,"O=C(Nc1cccnc1)c1cc2ccnc(Cl)c2[nH]1 [Example 21, 7-Chloro-N-(3-pyridinyl)-1H-pyrrolo[2,3-c]pyridine-2-carboxamide]",> 320 °C

# More lines, now with the values ahead:
row,melting point,Compound
1,219 to 222 °C,"O=C(c1ccccn1)c1cc2ccncc2[nH]1 [Example 122, (Pyridin-2-yl)(1H-pyrrolo[2,3-c]pyridin-2-yl)methanone]"
2,178 to 181 °C (dec.),"O=C(c1ccsc1)c1cc2ccncc2[nH]1 [Example 32, (1H-Pyrrolo[2,3-c]pyridin-2-yl)(thien-3-yl)methanone]"
3,306 to 310 °C,N=C(N)NN=C(c1ccccc1)c1cc2ccncc2[nH]1 (as salt: hydrochloride)
4,202 to 203 °C,CON=C(c1ccccc1)c1cc2ccncc2[nH]1.Cl [Example 120]
5,270 to 290 °C,"O=C(Nc1cccnc1)c1cc2ccncc2[nH]1 [Example 30, N-(3-Pyridinyl)-1H-pyrrolo[2,3-c]pyridine-2-carboxamide]"
6,169 to 172 °C (dec.),"OC(Cc1ccccc1)c1cc2ccncc2[nH]1 (centres unmarked) [Example 85, 2-Phenyl-1-(1H-pyrrolo[2,3-c]pyridin-2-yl)ethanol]"
7,132 to 142 °C,"O/N=C(\c1ccccc1)c1cc2ccncc2[nH]1 [Example 39, Phenyl(1H-pyrrolo[2,3-c]pyridin-2-yl)methanone oxime]"
8,274 to 277 °C (dec.),"O=C(c1ccc(Cl)cc1)c1cc2ccncc2[nH]1 [Example 103, (4-Chlorophenyl)(1H-pyrrolo[2,3-c]pyridin-2-yl)methanone]"
9,245 to 247 °C,"O=C(c1ccccc1)c1cc2ccncc2[nH]1 [Example 35, Phenyl(1H-pyrrolo[2,3-c]pyridin-2-yl)methanone]"
10,236 to 242 °C (dec.),"CC(=O)c1cc2ccncc2[nH]1 [Example 70, 1-(1H-Pyrrolo[2,3-c]pyridin-2-yl)ethanone]"
11,232 to 236 °C (dec.),"O=C(c1ccoc1)c1cc2ccncc2[nH]1 [Example 137, 3-Furyl(1H-pyrrolo[2,3-c]pyridin-2-yl)methanone]"
12,230 to 236 °C,"O=C(NCc1ccccn1)c1cc2ccncc2[nH]1 [Example 27, N-(2-Pyridinylmethyl)-1H-pyrrolo[2,3-c]pyridine-2-carboxamide]"
13,225 to 228 °C,"COc1ccc(C(=O)c2cc3ccncc3[nH]2)cc1 [Example 102, (4-Methoxyphenyl)(1H-pyrrolo[2,3-c]pyridin-2-yl)methanone]"
14,166 to 169 °C,"OC(c1ccccn1)c1cc2ccncc2[nH]1 (centres unmarked) [Example 117, (Pyridin-2-yl)(1H-pyrrolo[2,3-c]pyridin-2-yl)methanol]"
15,102 to 110 °C,"O=C(NC(c1ccccc1)c1cc2ccncc2[nH]1)c1ccccn1 (centres unmarked) [Example 50, N-[Phenyl (1H-pyrrolo[2,3-c]pyridin-2-yl)methyl]-2-pyridinecarboxamide]"
16,240 to 250 °C,"NC(c1ccccc1)c1cc2ccncc2[nH]1 (centres unmarked) (as salt: hydrochloride) [Example 40, 1-Phenyl-1-(1H-pyrrolo[2,3-c]pyridin-2-yl)methylamine dihydrochloride]"
